Results taken from US9157067B2, “Pluripotent cells from mammalian late epiblast layer” (priority 2006, dated 2015).

Experiments:
Format in all cases: cell-based
Rat EpiSCs = experiment: Oct-4 immunostaining of rat EpiSCs grown in supplemented CDM; conditions: for expression of the pluripotency marker Oct-4: after one week in CDM, 5B431542 10 uM, BMP4 10 ng/ml + 5B431542 10 uM, Activin 10 ng/ml + Noggin 100 ng/ml
Description: hESCs, mouse ESCs or EpiSCS were fixed for 20 minutes at 4° C. in 4% paraformaldehyde (PFA) and then washed three times in PBS. Cells were incubated for 20 minutes at room temperature in PBS containing 10% goat serum (Serotec) and subsequently incubated over night at 4° C. with primary antibody diluted in 1% goat serum in PBS as follows: SSEA-3 (1:100, Santa Cruz), SSAE-1 (1:25, gift from PW Andrews), Tra-1-60 (1:100, Santa CruZ), Oct-4 (1:100, SantaCruz), Sox2 (1:100, Abeam ab15830), Nanog (1:100, Abeam), Blirnpl (Abeam). Cells were then washed three times in PBS and incubated with fluorescein-Isothiocyanate-conjugated anti-mouse IgG or IgM (Sigma 1:200 in 1% goat serum in PBS) or rat IgM (Jackson laboratory 1:300 in goat serum in PBS) or rabbit IgG (Jackson laboratory 1:200 in donkey serum in PBS) for two hours at room temperature. Unbound secondary antibody was removed by 3 washes in PBS. Hoechst 33258 was added to the first wash (Sigma 1:10000).
Rat EpiSCs were grown in CDM supplemented in the presence of Activin (10 ng/ml), 5B431542 (10 uM), BMP4 10 ng/ml+5B431542 (10 uM) or Activin (10 ng/ml)+Noggin (IOOng/ml). After one week, the expression of the pluripotency marker Oct-4 was analysed using immunostaining. […] Similar results were obtained with mouse EpiSCs.

[1] = tested on: mouse late epiblast layer; experiment: Derivation of EpiSC lines from mouse late epiblast layers; conditions: dissected mouse epiblasts in CDM with BMP4 (50 ng/ml) and LIF
Description: Similar culture conditions were tested for derivation of pluripotent cells from pre- and post-implantation rodent embryos. […] For derivation at post implantation stages, the late epiblast layer of embryos at pre- or early gastrulation stages (5.5 dpc or 6.5 dpc) was separated from extraembryonic tissues by microdissection using Cell Dissociation Buffer (Invitrogen) at 4° C. for 15-20 min. to promote dissociation of the layers. […] After 24 hours, the epiblast layers formed colonies of compact cells having a high nucleo-cytoplasmic ratio, a characteristic morphological trait of pluripotent embryonic stem cells. Cells on the edge of the colony started to differentiate the following day, thereby producing a broad ring of stromal cells surrounding smaller aggregates of compact cells. These heterogeneous populations proceeded to form larger colonies of cells 4-5 days later. The latter colonies were picked, dissociated into smaller clumps using collagenase IV (Invitrogen) and then transferred to new dishes. Resulting colonies were passaged again 5 days later using collagenase and mechanical dissociation. […] These cells were designated Epiblast Stem Cells (EpiSCs) on the basis of their origin from pure epiblast cell layers.
Dissected mouse epiblasts were grown in CDM supplemented with BMP4 (50 ng/ml) and LIF, two growth factors required to maintain the pluripotent status of mouse ESCs.

rat epiblast layers = experiment: Derivation of EpiSC lines from rat epiblast layers; conditions: addition to CDM supplemented with Activin
Source text: The hypothesis that Activin and FGF signalling in pluripotency are conserved in mammalian development is supported by the ability of Activin/Nodal signalling to maintain long-term pluripotency of both human ESCs and mouse EpiSCs. As a further test of this hypothesis, we attempted to derive EpiSCs from rats, a species from which embryonic stem cell derivation has been problematic. Following the method we established in the mouse, epiblast layers were dissected from rat embryos at pre-gastrula stages (E 7.5-8.5) and grown on fibronectin-coated or FBS coated plates in CDM supplemented with Activin and FGF. […] Nevertheless, four EpiSC lines were derived out of 14 embryos of the Wistar strain and 1 EpiSC line was derived out of 20 embryos from the Sprague-Dawley strain using CDM supplemented with Activin alone.

| Molecule | expression of the pluripotency marker Oct-4 (Rat EpiSCs) | derivation of EpiSC lines [1] | differentiation of early epiblast cultures (rat epiblast layers) | further results |
| --- | --- | --- | --- | --- |
| NC(=O)c1ccc(-c2nc(-c3ccccn3)c(-c3ccc4c(c3)OCO4)[nH]2)cc1 [5B431542, reference compound] | loss of Oct-4 expression |  |  | differentiation of EpiSCs (Rat EpiSCs; inhibition of Activin/Nodal signalling): induced rapid differentiation of EpiSCs |
| BMP4: growth factor required with LIF to maintain mouse ESC pluripotency | not able to rescue the pluripotent status of EpiSCs | not able to derive any EpiSC lines |  |  |
| EGF: growth factor added to rat epiblast cultures |  |  | induced differentiation |  |
| FGF2: fibroblast growth factor 2 |  |  | induced differentiation |  |
| HGF: growth factor added to rat epiblast cultures |  |  | induced differentiation |  |
| LIF: Leukaemia Inhibitory Factor |  | not able to derive any EpiSC lines |  |  |
